{"source": "paper PMC9954146", "about": "“Anti-Leukaemic Activity of Rilpivirine Is Mediated by Aurora A Kinase Inhibition” (Cancers, 2023)", "experiment_in_all_cases": "Kinase panel", "type_in_all_cases": "biochemical", "conditions_in_all_cases": "read-out: % Residual Activity", "key": {"A-Raf(h)": {"molecular_target": "T1, A-Raf(h) (Homo sapiens, UniProt P10398)", "T1 construct": "purchased Eurofins (KinaseProfiler)", "how_it_was_run": "(§1)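 Kinome-wide selectivity of rilpivirine was profiled in a commercial kinase panel. Radioisotope-based assays run at each kinase's ATP Km gave IC50 values, which were converted to Ki with the Cheng–Prusoff equation.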"}, "ALK4(h)": {"molecular_target": "T2, ALK4(h) (Homo sapiens, UniProt P36896)", "T2 construct": "purchased Eurofins (KinaseProfiler)", "T2 sequence (P36896 24-505)": "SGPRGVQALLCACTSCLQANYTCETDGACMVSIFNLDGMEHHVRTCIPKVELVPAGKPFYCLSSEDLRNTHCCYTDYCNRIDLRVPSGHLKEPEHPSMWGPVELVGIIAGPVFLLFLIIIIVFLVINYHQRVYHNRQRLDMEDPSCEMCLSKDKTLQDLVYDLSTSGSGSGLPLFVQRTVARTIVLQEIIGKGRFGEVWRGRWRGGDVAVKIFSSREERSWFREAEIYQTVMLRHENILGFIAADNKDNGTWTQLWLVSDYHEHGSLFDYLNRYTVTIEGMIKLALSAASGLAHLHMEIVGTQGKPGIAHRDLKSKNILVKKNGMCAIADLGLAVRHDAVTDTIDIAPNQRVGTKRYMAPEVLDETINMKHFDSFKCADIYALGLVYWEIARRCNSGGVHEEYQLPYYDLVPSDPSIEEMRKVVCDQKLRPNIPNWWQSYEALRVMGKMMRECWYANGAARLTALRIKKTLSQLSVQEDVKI", "how_it_was_run": "as §1"}, "ASK1(h)": {"molecular_target": "T3, ASK1(h) (Homo sapiens, UniProt Q99683)", "T3 construct": "purchased Eurofins (KinaseProfiler)", "how_it_was_run": "as §1"}, "ATM(h)": {"molecular_target": "T4, ATM(h) (Homo sapiens, UniProt Q13315)", "T4 construct": "purchased Eurofins (KinaseProfiler)", "how_it_was_run": "as §1"}, "CDK6/cyclinD3(h)": {"molecular_target": "T5, CDK6/cyclinD3(h) (Homo sapiens, UniProt Q00534)", "T5 construct": "purchased Eurofins (KinaseProfiler)", "how_it_was_run": "as §1"}, "CHK1(h)": {"molecular_target": "T6, CHK1(h) (Homo sapiens, UniProt O14757)", "T6 construct": "purchased Eurofins (KinaseProfiler)", "how_it_was_run": "as §1"}, "CK1ε(h)": {"molecular_target": "T7, CK1ε(h) (Homo sapiens, UniProt P49674)", "T7 construct": "purchased Eurofins (KinaseProfiler)", "how_it_was_run": "as §1"}, "CK2(h)": {"molecular_target": "T8, CK2(h) (Homo sapiens, UniProt P68400)", "T8 construct": "purchased Eurofins (KinaseProfiler)", "how_it_was_run": "as §1"}, "CK2α2(h)": {"molecular_target": "T9, CK2α2(h) (Homo sapiens, UniProt P19784)", "T9 construct": "purchased Eurofins (KinaseProfiler)", "how_it_was_run": "as §1"}, "CLK4(h)": {"molecular_target": "T10, CLK4(h) (Homo sapiens, UniProt Q9HAZ1)", "T10 construct": "purchased Eurofins (KinaseProfiler)", "how_it_was_run": "as §1"}, "DRAK2(h)": {"molecular_target": "T11, DRAK2(h) (Homo sapiens, UniProt O94768)", "T11 construct": "purchased Eurofins (KinaseProfiler)", "how_it_was_run": "as §1"}, "EphA2(h)": {"molecular_target": "T12, EphA2(h) (Homo sapiens, UniProt P29317)", "T12 construct": "purchased Eurofins (KinaseProfiler)", "T12 sequence (P29317 24-976)": "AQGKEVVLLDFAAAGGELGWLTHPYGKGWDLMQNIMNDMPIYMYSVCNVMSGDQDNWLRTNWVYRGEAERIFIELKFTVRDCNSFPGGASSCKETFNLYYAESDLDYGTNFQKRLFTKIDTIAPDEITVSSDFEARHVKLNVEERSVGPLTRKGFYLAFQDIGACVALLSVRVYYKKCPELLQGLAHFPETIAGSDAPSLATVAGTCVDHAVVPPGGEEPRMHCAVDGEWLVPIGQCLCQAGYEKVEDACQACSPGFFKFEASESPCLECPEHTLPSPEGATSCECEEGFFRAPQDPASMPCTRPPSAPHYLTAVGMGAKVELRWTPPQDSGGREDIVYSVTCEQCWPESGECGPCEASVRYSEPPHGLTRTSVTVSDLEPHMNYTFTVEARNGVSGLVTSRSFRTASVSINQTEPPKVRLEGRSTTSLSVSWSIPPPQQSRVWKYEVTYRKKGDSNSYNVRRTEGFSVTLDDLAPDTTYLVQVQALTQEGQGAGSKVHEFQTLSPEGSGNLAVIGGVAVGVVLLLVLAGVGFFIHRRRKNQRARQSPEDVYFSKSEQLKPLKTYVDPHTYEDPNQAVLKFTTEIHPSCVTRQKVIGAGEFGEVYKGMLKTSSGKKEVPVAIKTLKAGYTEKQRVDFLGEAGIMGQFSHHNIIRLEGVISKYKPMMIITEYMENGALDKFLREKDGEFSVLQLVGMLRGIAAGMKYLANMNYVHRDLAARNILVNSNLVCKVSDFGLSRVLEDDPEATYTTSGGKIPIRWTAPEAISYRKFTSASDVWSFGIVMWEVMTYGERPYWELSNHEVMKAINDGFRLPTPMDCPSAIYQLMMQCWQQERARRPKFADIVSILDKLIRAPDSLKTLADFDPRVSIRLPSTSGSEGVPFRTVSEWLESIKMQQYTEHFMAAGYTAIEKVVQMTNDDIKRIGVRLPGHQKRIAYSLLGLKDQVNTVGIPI", "how_it_was_run": "as §1"}, "EphB1(h)": {"molecular_target": "T13, EphB1(h) (Homo sapiens, UniProt P54762)", "T13 construct": "purchased Eurofins (KinaseProfiler)", "T13 sequence (P54762 18-984)": "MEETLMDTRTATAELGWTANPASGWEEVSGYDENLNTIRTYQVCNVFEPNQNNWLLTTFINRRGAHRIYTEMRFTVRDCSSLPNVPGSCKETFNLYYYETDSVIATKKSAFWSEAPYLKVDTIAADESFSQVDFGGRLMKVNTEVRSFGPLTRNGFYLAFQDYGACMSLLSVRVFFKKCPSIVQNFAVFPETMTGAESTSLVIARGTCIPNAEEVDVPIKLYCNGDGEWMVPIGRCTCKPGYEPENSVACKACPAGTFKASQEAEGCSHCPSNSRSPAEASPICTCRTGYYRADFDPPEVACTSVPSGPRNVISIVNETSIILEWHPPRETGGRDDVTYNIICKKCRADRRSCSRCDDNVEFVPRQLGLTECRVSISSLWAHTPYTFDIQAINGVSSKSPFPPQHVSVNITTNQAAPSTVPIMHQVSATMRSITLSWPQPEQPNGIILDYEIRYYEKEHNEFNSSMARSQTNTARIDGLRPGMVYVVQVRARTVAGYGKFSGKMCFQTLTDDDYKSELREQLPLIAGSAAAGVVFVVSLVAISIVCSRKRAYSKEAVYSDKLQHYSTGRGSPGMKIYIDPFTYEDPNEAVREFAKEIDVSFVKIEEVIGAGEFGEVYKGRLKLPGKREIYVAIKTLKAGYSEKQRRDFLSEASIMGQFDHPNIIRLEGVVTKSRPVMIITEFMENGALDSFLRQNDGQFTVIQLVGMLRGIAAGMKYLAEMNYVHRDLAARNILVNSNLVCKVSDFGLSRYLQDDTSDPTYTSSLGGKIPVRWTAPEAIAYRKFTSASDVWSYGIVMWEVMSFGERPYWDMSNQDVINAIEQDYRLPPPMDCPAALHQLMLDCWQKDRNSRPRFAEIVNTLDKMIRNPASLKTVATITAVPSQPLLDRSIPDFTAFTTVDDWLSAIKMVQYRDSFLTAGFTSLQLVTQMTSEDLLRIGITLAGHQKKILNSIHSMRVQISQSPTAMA", "how_it_was_run": "as §1"}, "HIPK1(h)": {"molecular_target": "T14, HIPK1(h) (Homo sapiens, UniProt Q86Z02)", "T14 construct": "purchased Eurofins (KinaseProfiler)", "how_it_was_run": "as §1"}, "HPK1(h)": {"molecular_target": "T15, HPK1(h) (Homo sapiens, UniProt Q92918)", "T15 construct": "purchased Eurofins (KinaseProfiler)", "how_it_was_run": "as §1"}, "IGF-1R(h)": {"molecular_target": "T16, IGF-1R(h) (Homo sapiens, UniProt P08069)", "T16 construct": "purchased Eurofins (KinaseProfiler)", "how_it_was_run": "as §1"}, "JAK2(h)": {"molecular_target": "T17, JAK2(h) (Homo sapiens, UniProt O60674)", "T17 construct": "purchased Eurofins (KinaseProfiler)", "how_it_was_run": "as §1"}, "MAK(h)": {"molecular_target": "T18, MAK(h) (Homo sapiens, UniProt P20794)", "T18 construct": "purchased Eurofins (KinaseProfiler)", "how_it_was_run": "as §1"}, "MEK2(h)": {"molecular_target": "T19, MEK2(h) (Homo sapiens, UniProt P36507)", "T19 construct": "purchased Eurofins (KinaseProfiler)", "how_it_was_run": "as §1"}, "MKK4(m)": {"molecular_target": "T20, MKK4(m) (Mus musculus, UniProt P47809)", "T20 construct": "purchased Eurofins (KinaseProfiler)", "T20 sequence (P47809 2-397 limits assumed)": "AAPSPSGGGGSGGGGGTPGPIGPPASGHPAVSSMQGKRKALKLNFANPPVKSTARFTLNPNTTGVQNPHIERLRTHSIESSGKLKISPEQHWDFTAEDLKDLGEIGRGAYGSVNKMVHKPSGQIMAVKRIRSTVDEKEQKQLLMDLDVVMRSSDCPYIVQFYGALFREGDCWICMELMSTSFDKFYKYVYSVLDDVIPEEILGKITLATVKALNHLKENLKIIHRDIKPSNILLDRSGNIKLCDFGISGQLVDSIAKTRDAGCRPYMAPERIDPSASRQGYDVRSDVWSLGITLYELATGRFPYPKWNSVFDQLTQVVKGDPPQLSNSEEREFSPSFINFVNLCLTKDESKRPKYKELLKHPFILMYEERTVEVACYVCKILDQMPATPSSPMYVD", "how_it_was_run": "as §1"}, "MSK2(h)": {"molecular_target": "T21, MSK2(h) (Homo sapiens, UniProt O75676)", "T21 construct": "purchased Eurofins (KinaseProfiler)", "how_it_was_run": "as §1"}, "MST2(h)": {"molecular_target": "T22, MST2(h) (Homo sapiens, UniProt Q13188)", "T22 construct": "purchased Eurofins (KinaseProfiler)", "how_it_was_run": "as §1"}, "MYO3B(h)": {"molecular_target": "T23, MYO3B(h) (Homo sapiens, UniProt Q8WXR4)", "T23 construct": "purchased Eurofins (KinaseProfiler)", "how_it_was_run": "as §1"}, "Met(M1268T)(h)": {"molecular_target": "T24, Met(M1268T)(h) (Homo sapiens, UniProt P08581, M1250T)", "T24 construct": "purchased Eurofins (KinaseProfiler)", "T24 sequence (P08581 956-1390 M1250T limits assumed)": "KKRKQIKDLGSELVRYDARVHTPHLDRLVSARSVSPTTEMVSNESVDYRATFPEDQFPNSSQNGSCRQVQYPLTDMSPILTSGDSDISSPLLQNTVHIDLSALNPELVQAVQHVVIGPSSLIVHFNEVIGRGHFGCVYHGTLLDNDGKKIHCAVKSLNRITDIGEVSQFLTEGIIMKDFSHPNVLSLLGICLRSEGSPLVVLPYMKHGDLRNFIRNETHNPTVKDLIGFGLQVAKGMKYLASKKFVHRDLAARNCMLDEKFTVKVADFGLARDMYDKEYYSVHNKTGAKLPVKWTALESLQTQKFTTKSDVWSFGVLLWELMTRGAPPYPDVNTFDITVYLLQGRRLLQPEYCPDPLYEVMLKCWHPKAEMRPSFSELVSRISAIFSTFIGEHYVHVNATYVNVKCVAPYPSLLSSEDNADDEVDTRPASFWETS", "how_it_was_run": "as §1"}, "Mnk2(h)": {"molecular_target": "T25, Mnk2(h) (Homo sapiens, UniProt Q9HBH9)", "T25 construct": "purchased Eurofins (KinaseProfiler)", "how_it_was_run": "as §1"}, "OSR1(h)": {"molecular_target": "T26, OSR1(h) (Homo sapiens, UniProt O95747)", "T26 construct": "purchased Eurofins (KinaseProfiler)", "how_it_was_run": "as §1"}, "PDGFRβ(h)": {"molecular_target": "T27, PDGFRβ(h) (Homo sapiens, UniProt P09619)", "T27 construct": "purchased Eurofins (KinaseProfiler)", "how_it_was_run": "as §1"}, "[1]": {"molecular_target": "PI3 Kinase (p110a(H1047R)/p85a)(m) (Mus musculus, UniProt P42337, H1047R)", "how_it_was_run": "as §1"}, "[2]": {"molecular_target": "PI3 Kinase (p110a/p85a)(h) (Homo sapiens, UniProt P42336)", "how_it_was_run": "as §1"}, "[3]": {"molecular_target": "T28, PI3 Kinase (p110a/p85a)(m) (Mus musculus, UniProt P42337)", "T28 construct": "purchased Eurofins (KinaseProfiler)", "how_it_was_run": "as §1"}, "PI3KC2g(h)": {"molecular_target": "PI3KC2g(h) (Homo sapiens, UniProt O75747)", "sequence (O75747 whole entry)": "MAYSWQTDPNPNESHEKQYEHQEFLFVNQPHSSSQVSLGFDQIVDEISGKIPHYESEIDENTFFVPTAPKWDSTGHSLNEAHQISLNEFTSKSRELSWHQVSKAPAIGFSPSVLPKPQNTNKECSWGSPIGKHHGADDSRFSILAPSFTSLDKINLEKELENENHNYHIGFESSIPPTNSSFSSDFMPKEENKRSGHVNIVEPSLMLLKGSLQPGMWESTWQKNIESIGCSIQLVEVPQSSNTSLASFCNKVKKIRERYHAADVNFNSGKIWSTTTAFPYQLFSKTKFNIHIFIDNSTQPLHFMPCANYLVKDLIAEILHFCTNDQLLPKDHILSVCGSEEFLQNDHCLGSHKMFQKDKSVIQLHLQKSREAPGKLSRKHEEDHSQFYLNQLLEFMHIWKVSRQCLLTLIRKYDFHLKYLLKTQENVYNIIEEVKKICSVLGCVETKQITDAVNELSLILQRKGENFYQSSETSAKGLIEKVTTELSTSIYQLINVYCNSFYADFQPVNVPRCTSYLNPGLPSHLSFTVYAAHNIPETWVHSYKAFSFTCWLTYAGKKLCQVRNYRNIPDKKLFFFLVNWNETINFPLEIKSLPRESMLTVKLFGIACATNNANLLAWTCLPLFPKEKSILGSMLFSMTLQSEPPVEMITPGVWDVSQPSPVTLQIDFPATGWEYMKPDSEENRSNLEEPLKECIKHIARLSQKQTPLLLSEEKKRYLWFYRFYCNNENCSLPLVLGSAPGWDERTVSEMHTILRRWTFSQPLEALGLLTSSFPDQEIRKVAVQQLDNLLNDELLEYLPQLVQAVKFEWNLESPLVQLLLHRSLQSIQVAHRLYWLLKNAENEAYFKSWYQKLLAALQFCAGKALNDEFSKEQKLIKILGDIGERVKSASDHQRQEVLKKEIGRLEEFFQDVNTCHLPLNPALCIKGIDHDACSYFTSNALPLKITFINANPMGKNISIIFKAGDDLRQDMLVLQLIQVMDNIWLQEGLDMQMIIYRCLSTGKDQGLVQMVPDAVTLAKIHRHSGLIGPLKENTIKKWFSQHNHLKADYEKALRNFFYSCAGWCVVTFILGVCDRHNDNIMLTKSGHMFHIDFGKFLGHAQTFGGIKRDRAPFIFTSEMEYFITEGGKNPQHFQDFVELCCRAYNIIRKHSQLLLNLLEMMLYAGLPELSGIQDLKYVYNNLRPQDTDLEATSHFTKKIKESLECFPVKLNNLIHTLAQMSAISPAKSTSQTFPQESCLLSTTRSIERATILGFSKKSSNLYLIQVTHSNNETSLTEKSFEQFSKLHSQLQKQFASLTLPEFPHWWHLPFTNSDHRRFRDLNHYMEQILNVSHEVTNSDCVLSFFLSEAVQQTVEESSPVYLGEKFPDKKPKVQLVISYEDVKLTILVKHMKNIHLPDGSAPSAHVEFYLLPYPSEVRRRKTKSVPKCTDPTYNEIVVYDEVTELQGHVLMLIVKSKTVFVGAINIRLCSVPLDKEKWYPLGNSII", "how_it_was_run": "as §1"}, "PKCθ(h)": {"molecular_target": "T29, PKCθ(h) (Homo sapiens, UniProt Q04759)", "T29 construct": "purchased Eurofins (KinaseProfiler)", "how_it_was_run": "as §1"}, "PRAK(h)": {"molecular_target": "T30, PRAK(h) (Homo sapiens, UniProt Q8IW41)", "T30 construct": "purchased Eurofins (KinaseProfiler)", "how_it_was_run": "as §1"}, "SGK(h)": {"molecular_target": "T31, SGK(h) (Homo sapiens, UniProt O00141)", "T31 construct": "purchased Eurofins (KinaseProfiler)", "how_it_was_run": "as §1"}, "SRPK1(h)": {"molecular_target": "T32, SRPK1(h) (Homo sapiens, UniProt Q96SB4)", "T32 construct": "purchased Eurofins (KinaseProfiler)", "how_it_was_run": "as §1"}, "WNK2(h)": {"molecular_target": "T33, WNK2(h) (Homo sapiens, UniProt Q9Y3S1)", "T33 construct": "purchased Eurofins (KinaseProfiler)", "how_it_was_run": "as §1"}, "eEF-2K(h)": {"molecular_target": "T34, eEF-2K(h) (Homo sapiens, UniProt O00418)", "T34 construct": "purchased Eurofins (KinaseProfiler)", "how_it_was_run": "as §1"}, "p70S6K(h)": {"molecular_target": "T35, p70S6K(h) (Homo sapiens, UniProt P23443)", "T35 construct": "purchased Eurofins (KinaseProfiler)", "how_it_was_run": "as §1"}}, "data": [{"compound": "Cc1cc(/C=C/C#N)cc(C)c1Nc1ccnc(Nc2ccc(C#N)cc2)n1", "note": "[rilpivirine, (E)-4-((4-((4-(2-cyanoethenyl)-2,6-dimethylphenyl)amino)pyrimidin-2-yl)amino)benzonitrile]", "values": [{"measurement": "remaining activity at 1 µM", "setting": "A-Raf(h)", "value": 101, "unit": "%"}, {"measurement": "remaining activity at 1 µM", "setting": "ALK4(h)", "value": 79, "unit": "%"}, {"measurement": "remaining activity at 1 µM", "setting": "ASK1(h)", "value": 92, "unit": "%"}, {"measurement": "remaining activity at 1 µM", "setting": "ATM(h)", "value": 111, "unit": "%"}, {"measurement": "remaining activity at 1 µM", "setting": "CDK6/cyclinD3(h)", "value": 96, "unit": "%"}, {"measurement": "remaining activity at 1 µM", "setting": "CHK1(h)", "value": 100, "unit": "%"}, {"measurement": "remaining activity at 1 µM", "setting": "CK1ε(h)", "value": 116, "unit": "%"}, {"measurement": "remaining activity at 1 µM", "setting": "CK2(h)", "value": 90, "unit": "%"}, {"measurement": "remaining activity at 1 µM", "setting": "CK2α2(h)", "value": 104, "unit": "%"}, {"measurement": "remaining activity at 1 µM", "setting": "CLK4(h)", "value": 37, "unit": "%"}, {"measurement": "remaining activity at 1 µM", "setting": "DRAK2(h)", "value": 107, "unit": "%"}, {"measurement": "remaining activity at 1 µM", "setting": "EphA2(h)", "value": 72, "unit": "%"}, {"measurement": "remaining activity at 1 µM", "setting": "EphB1(h)", "value": 94, "unit": "%"}, {"measurement": "remaining activity at 1 µM", "setting": "HIPK1(h)", "value": 97, "unit": "%"}, {"measurement": "remaining activity at 1 µM", "setting": "HPK1(h)", "value": 62, "unit": "%"}, {"measurement": "remaining activity at 1 µM", "setting": "IGF-1R(h)", "value": 89, "unit": "%"}, {"measurement": "remaining activity at 1 µM", "setting": "JAK2(h)", "value": 72, "unit": "%"}, {"measurement": "remaining activity at 1 µM", "setting": "MAK(h)", "value": 84, "unit": "%"}, {"measurement": "remaining activity at 1 µM", "setting": "MEK2(h)", "value": 92, "unit": "%"}, {"measurement": "remaining activity at 1 µM", "setting": "MKK4(m)", "value": 84, "unit": "%"}, {"measurement": "remaining activity at 1 µM", "setting": "MSK2(h)", "value": 105, "unit": "%"}, {"measurement": "remaining activity at 1 µM", "setting": "MST2(h)", "value": 80, "unit": "%"}, {"measurement": "remaining activity at 1 µM", "setting": "MYO3B(h)", "value": 96, "unit": "%"}, {"measurement": "remaining activity at 1 µM", "setting": "Met(M1268T)(h)", "value": 109, "unit": "%"}, {"measurement": "remaining activity at 1 µM", "setting": "Mnk2(h)", "value": 85, "unit": "%"}, {"measurement": "remaining activity at 1 µM", "setting": "OSR1(h)", "value": 102, "unit": "%"}, {"measurement": "remaining activity at 1 µM", "setting": "PDGFRβ(h)", "value": 93, "unit": "%"}, {"measurement": "remaining activity at 1 µM", "setting": "[1]", "value": 96, "unit": "%"}, {"measurement": "remaining activity at 1 µM", "setting": "[2]", "value": 98, "unit": "%"}, {"measurement": "remaining activity at 1 µM", "setting": "[3]", "value": 100, "unit": "%"}, {"measurement": "remaining activity at 1 µM", "setting": "PI3KC2g(h)", "value": 82, "unit": "%"}, {"measurement": "remaining activity at 1 µM", "setting": "PKCθ(h)", "value": 66, "unit": "%"}, {"measurement": "remaining activity at 1 µM", "setting": "PRAK(h)", "value": 100, "unit": "%"}, {"measurement": "remaining activity at 1 µM", "setting": "SGK(h)", "value": 97, "unit": "%"}, {"measurement": "remaining activity at 1 µM", "setting": "SRPK1(h)", "value": 84, "unit": "%"}, {"measurement": "remaining activity at 1 µM", "setting": "WNK2(h)", "value": 80, "unit": "%"}, {"measurement": "remaining activity at 1 µM", "setting": "eEF-2K(h)", "value": 92, "unit": "%"}, {"measurement": "remaining activity at 1 µM", "setting": "p70S6K(h)", "value": 108, "unit": "%"}]}]}
